# Data published in patent US7709471B2, “Compounds” (AstraZeneca AB, priority 2006, dated 2010).
# How the values were obtained:
# recombinant Plk1 = recombinant Plk1 (Homo sapiens, UniProt P53350); experiment: In Vitro Plk1 Enzyme Assay (SPA, GST-Cdc25C phosphorylation); format: biochemical; conditions: ATP 64 nM, 90 minutes, read-out: IC50 (Plk1 enzyme inhibition)
# [1] = system: human colon tumour cell line HT29; experiment: Cellular Assay (phosphohistone H3 Ser10 mitotic marker, HT29); format: cell-based; conditions: HT-29, 24 h, HT29 cells, read-out: IC50 (cellular assay, phosphohistone H3)
# Method: Chromosome condensation in mitosis is accompanied by phosphorylation of histone H3 on serine 10.
# After 24 hours, cells were fixed in 3.7% (v/v) formaldehyde then permeabilised and blocked for 10 minutes in 100 μl 0.5% (v/v) Triton X-100, 1% (w/v) bovine serum albumin (BSA) in phosphate buffered saline (PBS). […] The raw assay data were analysed by non-linear regression analysis and used to determine an IC50 value for each compound.
# Chain of recombinant Plk1 (P53350 whole entry): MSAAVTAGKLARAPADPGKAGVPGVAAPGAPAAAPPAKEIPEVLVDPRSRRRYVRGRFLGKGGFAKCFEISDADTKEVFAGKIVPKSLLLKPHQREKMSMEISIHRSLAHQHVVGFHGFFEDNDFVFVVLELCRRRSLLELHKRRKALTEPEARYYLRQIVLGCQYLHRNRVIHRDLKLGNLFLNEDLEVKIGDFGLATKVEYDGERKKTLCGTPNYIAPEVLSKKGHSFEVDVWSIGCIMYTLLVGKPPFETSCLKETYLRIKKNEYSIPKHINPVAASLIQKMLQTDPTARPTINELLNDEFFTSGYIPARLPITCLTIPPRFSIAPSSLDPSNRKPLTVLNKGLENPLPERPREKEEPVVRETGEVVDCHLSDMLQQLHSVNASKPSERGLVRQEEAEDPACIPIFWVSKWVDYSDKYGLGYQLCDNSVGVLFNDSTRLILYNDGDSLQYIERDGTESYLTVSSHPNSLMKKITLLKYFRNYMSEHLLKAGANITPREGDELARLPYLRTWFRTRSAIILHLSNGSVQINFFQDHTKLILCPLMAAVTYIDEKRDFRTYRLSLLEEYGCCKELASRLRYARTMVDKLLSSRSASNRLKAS
Compound,IC50 (recombinant Plk1) [nM],IC50 [1] [nM]
"COc1ccc(NC(=O)c2ccc(Nc3ncc4c(n3)N(C3CCCC3)CCC(=O)N4C)c(OC)c2)cc1 [Example 77, 4-[(6-cyclopentyl-2-methyl-3-oxo-2,6,8,10-tetrazabicyclo[5.4.0]undeca-8,10,12-trien-9-yl)amino]-3-methoxy-N-(4-methoxyphenyl)benzamide]",< 100000,< 1000
"CCN(CC)CCCNC(=O)c1ccc(Nc2ncc3c(n2)N(C2CCCC2)CCC(=O)N3C)c(OC)c1 [Example 78, 4-[(6-cyclopentyl-2-methyl-3-oxo-2,6,8,10-tetrazabicyclo[5.4.0]undeca-8,10,12-trien-9-yl)amino]-N-(3-diethylaminopropyl)-3-methoxy-benzamide]",< 300,< 300
"COc1cc(C(=O)NCc2ccncc2)ccc1Nc1ncc2c(n1)N(C1CCCC1)CCC(=O)N2C [Example 80, 4-[(6-cyclopentyl-2-methyl-3-oxo-2,6,8,10-tetrazabicyclo[5.4.0]undeca-8,10,12-trien-9-yl)amino]-3-methoxy-N-(pyridin-4-ylmethyl)benzamide]",< 1000,< 300
"COc1cc(C(=O)NC(C)(C)CN2CCCC2)ccc1Nc1ncc2c(n1)N(C1CCCC1)CCC(=O)N2C [Example 81, 4-[(6-cyclopentyl-2-methyl-3-oxo-2,6,8,10-tetrazabicyclo[5.4.0]undeca-8,10,12-trien-9-yl)amino]-3-methoxy-N-(2-methyl-1-pyrrolidin-1-yl-propan-2-yl)benzamide]",< 1000,< 300
"COc1cc(C(=O)NC[C@@H]2CCCN2CC2CC2)ccc1Nc1ncc2c(n1)N(C1CCCC1)CCC(=O)N2C [Example 82, 4-[(6-cyclopentyl-2-methyl-3-oxo-2,6,8,10-tetrazabicyclo[5.4.0]undeca-8,10,12-trien-9-yl)amino]-N-[[(2S)-1-(cyclopropylmethyl)pyrrolidin-2-yl]methyl]-3-methoxy-benzamide]",< 300,< 300
"COc1cc(C(=O)NCC2(CN3CCCC3)CC2)ccc1Nc1ncc2c(n1)N(C1CCCC1)CCC(=O)N2C [Example 83, 4-[(6-cyclopentyl-2-methyl-3-oxo-2,6,8,10-tetrazabicyclo[5.4.0]undeca-8,10,12-trien-9-yl)amino]-3-methoxy-N-[[1-(pyrrolidin-1-ylmethyl)cyclopropyl]methyl]benzamide]",< 300,< 300
"COc1cc(C(=O)NCC2CCCN(C)C2)ccc1Nc1ncc2c(n1)N(C1CCCC1)CCC(=O)N2C (stereo not drawn) [Example 84, 4-[(6-cyclopentyl-2-methyl-3-oxo-2,6,8,10-tetrazabicyclo[5.4.0]undeca-8,10,12-trien-9-yl)amino]-3-methoxy-N-[(1-methyl-3-piperidyl)methyl]benzamide]",< 300,< 300
"COc1cc(C(=O)NCCC2CCCCN2C)ccc1Nc1ncc2c(n1)N(C1CCCC1)CCC(=O)N2C (stereo not drawn) [Example 85, 4-[(6-cyclopentyl-2-methyl-3-oxo-2,6,8,10-tetrazabicyclo[5.4.0]undeca-8,10,12-trien-9-yl)amino]-3-methoxy-N-[2-(1-methyl-2-piperidyl)ethyl]benzamide]",< 300,< 300
"COc1cc(C(=O)N[C@@H]2CC[C@H](C(=O)N(C)C)C2)ccc1Nc1ncc2c(n1)N(C1CCCC1)CCC(=O)N2C [Example 88, 4-[(6-cyclopentyl-2-methyl-3-oxo-2,6,8,10-tetrazabicyclo[5.4.0]undeca-8,10,12-trien-9-yl)amino]-N-[(1R,3S)-3-(dimethylcarbamoyl)cyclopentyl]-3-methoxy-benzamide]",< 100000,< 300
"CN1C(=O)CCN(C2CCCC2)c2nc(Nc3ccc(C(=O)NC4CCCCC4)cc3)ncc21 [Example 89, N-cyclohexyl-4-[(6-cyclopentyl-2-methyl-3-oxo-2,6,8,10-tetrazabicyclo[5.4.0]undeca-8,10,12-trien-9-yl)amino]benzamide]",< 1000,< 30000
"COc1cc(C(=O)NC2CCCCC2)ccc1Nc1ncc2c(n1)N(C1CCCC1)CCC(=O)N2C [Example 90, N-cyclohexyl-4-[(6-cyclopentyl-2-methyl-3-oxo-2,6,8,10-tetrazabicyclo[5.4.0]undeca-8,10,12-trien-9-yl)amino]-3-methoxy-benzamide]",< 1000,< 300
"COc1cc(C(N)=O)ccc1Nc1ncc2c(n1)N(C1CCCC1)CCC(=O)N2C [Example 92, 4-[(6-cyclopentyl-2-methyl-3-oxo-2,6,8,10-tetrazabicyclo[5.4.0]undeca-8,10,12-trien-9-yl)amino]-3-methoxy-benzamide]",< 300,< 300
"CCCNC(=O)c1ccc(Nc2ncc3c(n2)N(C2CCCC2)CCC(=O)N3C)c(OC)c1 [Example 93, 4-[(6-cyclopentyl-2-methyl-3-oxo-2,6,8,10-tetrazabicyclo[5.4.0]undeca-8,10,12-trien-9-yl)amino]-3-methoxy-N-propyl-benzamide]",< 1000,< 300
"COc1cc(C(=O)NCC2CC2)ccc1Nc1ncc2c(n1)N(C1CCCC1)CCC(=O)N2C [Example 94, 4-[(6-cyclopentyl-2-methyl-3-oxo-2,6,8,10-tetrazabicyclo[5.4.0]undeca-8,10,12-trien-9-yl)amino]-N-(cyclopropylmethyl)-3-methoxy-benzamide]",< 100000,< 300
"COc1cc(C(=O)NC(C)C)ccc1Nc1ncc2c(n1)N(C1CCCC1)CCC(=O)N2C [Example 95, 4-[(6-cyclopentyl-2-methyl-3-oxo-2,6,8,10-tetrazabicyclo[5.4.0]undeca-8,10,12-trien-9-yl)amino]-3-methoxy-N-propan-2-yl-benzamide]",< 1000,< 300
"COc1cc(C(=O)NCc2ccccc2)ccc1Nc1ncc2c(n1)N(C1CCCC1)CCC(=O)N2C [Example 96, N-benzyl-4-[(6-cyclopentyl-2-methyl-3-oxo-2,6,8,10-tetrazabicyclo[5.4.0]undeca-8,10,12-trien-9-yl)amino]-3-methoxy-benzamide]",< 100000,< 300
"COc1cc(C(=O)NC2CCC2)ccc1Nc1ncc2c(n1)N(C1CCCC1)CCC(=O)N2C [Example 98, N-cyclobutyl-4-[(6-cyclopentyl-2-methyl-3-oxo-2,6,8,10-tetrazabicyclo[5.4.0]undeca-8,10,12-trien-9-yl)amino]-3-methoxy-benzamide]",< 1000,< 300
"COc1cc(C(=O)Nc2ccccc2)ccc1Nc1ncc2c(n1)N(C1CCCC1)CCC(=O)N2C [Example 99, 4-[(6-cyclopentyl-2-methyl-3-oxo-2,6,8,10-tetrazabicyclo[5.4.0]undeca-8,10,12-trien-9-yl)amino]-3-methoxy-N-phenyl-benzamide]",< 100000,< 1000
"COc1cc(N(C)C2CCN(C)CC2)ccc1Nc1ncc2c(n1)N(C1CCCC1)CCC(=O)N2C [Example 104, 6-cyclopentyl-9-[[2-methoxy-4-[methyl-(1-methyl-4-piperidyl)amino]phenyl]amino]-2-methyl-2,6,8,10-tetrazabicyclo[5.4.0]undeca-8,10,12-trien-3-one]",< 300,< 1000
"COCCN1CCN(c2ccc(Nc3ncc4c(n3)N(C3CCCC3)CCC(=O)N4C)c(OC)c2)CC1 [Example 105, 6-cyclopentyl-9-[[2-methoxy-4-[4-(2-methoxyethyl)piperazin-1-yl]phenyl]amino]-2-methyl-2,6,8,10-tetrazabicyclo[5.4.0]undeca-8,10,12-trien-3-one]",< 1000,< 30000
"COc1cc(NCCN(C)C)ccc1Nc1ncc2c(n1)N(C1CCCC1)CCC(=O)N2C [Example 107, 6-cyclopentyl-9-[[4-(2-dimethylaminoethylamino)-2-methoxy-phenyl]amino]-2-methyl-2,6,8,10-tetrazabicyclo[5.4.0]undeca-8,10,12-trien-3-one]",< 1000,< 30000
"COc1cc(N2CCCN(C)CC2)ccc1Nc1ncc2c(n1)N(C1CCCC1)CCC(=O)N2C [Example 109, 6-cyclopentyl-9-[[2-methoxy-4-(4-methyl-1,4-diazepan-1-yl)phenyl]amino]-2-methyl-2,6,8,10-tetrazabicyclo[5.4.0]undeca-8,10,12-trien-3-one]",< 1000,< 300
"COc1cc(OC2CCN(C)CC2)ccc1Nc1ncc2c(n1)N(C1CCCC1)CCC(=O)N2C [Example 113, 6-cyclopentyl-9-[[2-methoxy-4-[(1-methyl-4-piperidyl)oxy]phenyl]amino]-2-methyl-2,6,8,10-tetrazabicyclo[5.4.0]undeca-8,10,12-trien-3-one]",< 1000,< 1000
"COc1cc(OC2CCN(C)C2)ccc1Nc1ncc2c(n1)N(C1CCCC1)CCC(=O)N2C (stereo not drawn) [Example 114, 6-cyclopentyl-9-[[2-methoxy-4-(1-methylpyrrolidin-3-yl)oxy-phenyl]amino]-2-methyl-2,6,8,10-tetrazabicyclo[5.4.0]undeca-8,10,12-trien-3-one]",< 300,< 1000
"COc1cc(OCCN2CCOCC2)ccc1Nc1ncc2c(n1)N(C1CCCC1)CCC(=O)N2C [Example 115, 6-cyclopentyl-9-[[2-methoxy-4-(2-morpholin-4-ylethoxy)phenyl]amino]-2-methyl-2,6,8,10-tetrazabicyclo[5.4.0]undeca-8,10,12-trien-3-one]",< 1000,< 30000
"CN(C)c1ccc(Nc2ncc3c(n2)N(C2CCCC2)CCC(=O)N3C)cc1 [Example 122, 6-cyclopentyl-9-[(4-dimethylaminophenyl)amino]-2-methyl-2,6,8,10-tetrazabicyclo[5.4.0]undeca-8,10,12-trien-3-one]",< 100000,< 30000
"CN1C(=O)CCN(C2CCCC2)c2nc(Nc3ccc(S(N)(=O)=O)cc3)ncc21 [Example 123, 4-[(6-cyclopentyl-2-methyl-3-oxo-2,6,8,10-tetrazabicyclo[5.4.0]undeca-8,10,12-trien-9-yl)amino]benzenesulfonamide]",< 100000,< 30000
